In ChEMBL document CHEMBL4138060, “Development of new scaffolds as reversible tissue transglutaminase inhibitors, with improved potency or resistance to glutathione addition” (Medchemcomm, 2017):

What was measured:
[1] = biological target: T1, Protein-glutamine gamma-glutamyltransferase (Homo sapiens, UniProt P21980); test: Inhibition of human transglutaminase 2 using N-Cbz-Glu(gamma-p-nitrophenylester)Gly (AL5) substrate measured over 10 mins by UV-visible spectrophotometry
T1 sequence (P21980 whole entry): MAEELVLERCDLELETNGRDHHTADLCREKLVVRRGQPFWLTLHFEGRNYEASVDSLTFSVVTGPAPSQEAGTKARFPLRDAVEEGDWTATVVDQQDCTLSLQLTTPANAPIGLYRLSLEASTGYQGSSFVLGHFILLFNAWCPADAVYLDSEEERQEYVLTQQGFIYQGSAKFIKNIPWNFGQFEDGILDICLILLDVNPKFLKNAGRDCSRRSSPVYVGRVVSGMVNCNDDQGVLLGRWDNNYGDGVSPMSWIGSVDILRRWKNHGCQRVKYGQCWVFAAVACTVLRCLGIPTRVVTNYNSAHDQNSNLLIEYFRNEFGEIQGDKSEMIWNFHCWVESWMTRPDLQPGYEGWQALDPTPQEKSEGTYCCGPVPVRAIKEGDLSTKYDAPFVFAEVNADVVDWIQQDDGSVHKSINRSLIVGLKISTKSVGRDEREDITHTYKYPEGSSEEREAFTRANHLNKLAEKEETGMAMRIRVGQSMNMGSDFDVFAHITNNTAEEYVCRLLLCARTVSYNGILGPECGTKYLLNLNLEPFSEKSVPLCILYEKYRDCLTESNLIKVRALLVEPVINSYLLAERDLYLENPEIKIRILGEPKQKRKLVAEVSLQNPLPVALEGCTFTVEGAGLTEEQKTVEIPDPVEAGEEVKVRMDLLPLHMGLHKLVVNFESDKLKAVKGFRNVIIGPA

[2] = Inhibition of guinea pig liver transglutaminase 2; design: species or system Cavia porcellus
[3] = biological target: T1, Protein-glutamine gamma-glutamyltransferase; test: Competitive inhibition of human transglutaminase 2 using N-Cbz-Glu(gamma-p-nitrophenylester)Gly (AL5) substrate measured over 10 mins by UV-visible spectrophotometry based Michaelis-Menten analysis
[4] = Inhibition of guinea pig liver transglutaminase 2 using N-Cbz-Glu(gamma-p-nitrophenylester)Gly (AL5) substrate measured over 10 mins by UV-visible spectrophotometry; design: species or system Cavia porcellus
[5] = biological target: T1, Protein-glutamine gamma-glutamyltransferase; test: Inhibition of human transglutaminase 2

Structure (SMILES)	IC50 ([1]; read-out: IC50) [µM]	IC50 [1]	further results
O=C(c1cccnc1)[C@H]1C[C@@H]1c1cccc([N+](=O)[O-])c1	147	–	–
CC(C)/C(=C\C(=O)n1nnc2ccccc21)c1ccc([N+](=O)[O-])cc1	–	Not Active	–
O=C(c1cn(Cc2ccc(Br)cc2)nn1)c1cn(Cc2ccc([N+](=O)[O-])cc2)nn1	–	Not Active	–
CC(C)/C(=C/C(=O)n1nnc2ccccc21)c1ccc([N+](=O)[O-])cc1	–	Not Active	–
O=C(c1cn(Cc2ccc(C(F)(F)F)cc2)nn1)c1cn(Cc2ccc(C(F)(F)F)cc2)nn1	–	Not Active	–
O=C(c1cn(Cc2ccc(F)cc2)nn1)c1cn(Cc2ccc([N+](=O)[O-])cc2)nn1	–	Not Active	–
N#Cc1ccc(Cn2cc(C(=O)c3cn(Cc4ccc([N+](=O)[O-])cc4)nn3)nn2)cc1	> 100	–	–
O=C(C#Cc1ccc([N+](=O)[O-])cc1)n1nnc2ccccc21	2.6	–	–
O=C(/C=C/c1ccc([N+](=O)[O-])cc1)c1cccnc1	–	–	IC50 [2]: 21 µM
O=C(c1cn(Cc2ccc([N+](=O)[O-])cc2)nn1)c1cn(Cc2ccc(C(F)(F)F)cc2)nn1	25.9	–	–
O=C(C#Cc1ccc([N+](=O)[O-])cc1)c1cn(Cc2ccc([N+](=O)[O-])cc2)nn1	0.79	–	Ki [3]: 0.42 µM
COc1ccc(Cn2cc(C(=O)c3cn(Cc4ccc([N+](=O)[O-])cc4)nn3)nn2)cc1	–	Not Active	–
O=C(c1cc2cc([N+](=O)[O-])ccc2oc1=O)n1nnc2ccccc21	145	–	–
O=C(c1cn(Cc2ccc(OC(F)(F)F)cc2)nn1)c1cn(Cc2ccc([N+](=O)[O-])cc2)nn1	> 100	–	–
O=[N+]([O-])c1cccc(/C=C/C2(c3cccnc3)CO2)c1 (stereo not drawn)	151	–	–
O=C(c1cn(Cc2ccc([N+](=O)[O-])cc2)nn1)c1cn(CC2CCCCC2)nn1	–	Not Active	–
Cc1ccc(Cn2cc(C(=O)c3cn(Cc4ccc([N+](=O)[O-])cc4)nn3)nn2)cc1	–	Not Active	–
O=C(c1cn(Cc2ccc([N+](=O)[O-])cc2)nn1)c1cn(Cc2ccc([N+](=O)[O-])cc2)nn1	14.1	–	Ki [3]: 9.9 µM
O=C(/C=C/c1ccc([N+](=O)[O-])cc1)c1cn(Cc2ccc([N+](=O)[O-])cc2)nn1	–	–	IC50 [4]: 2.1 µM
O=C(/C=C/c1cccc([N+](=O)[O-])c1)c1cccnc1	19.6	–	IC50 [2]: 3 µM; IC50 [5]: 19.6 µM; Ki [5]: 4 µM
O=C(c1cn(Cc2ccc([N+](=O)[O-])cc2)nn1)c1cn(Cc2cccc([N+](=O)[O-])c2)nn1	> 100	–	–
O=C(c1cn(Cc2ccc([N+](=O)[O-])cc2)nn1)c1cn(Cc2ccccc2[N+](=O)[O-])nn1	64.1	–	–
O=C(/C=C/c1ccc([N+](=O)[O-])cc1)n1nnc2ccccc21	–	–	IC50 [2]: 74 µM; IC50 [4]: 74 µM
C/C(=C\C(=O)n1nnc2ccccc21)c1ccc([N+](=O)[O-])cc1	–	Not Active	–
O=C(C#Cc1ccc([N+](=O)[O-])cc1)c1cn(Cc2ccccc2)nn1	0.61	–	–
O=[N+]([O-])c1cccc(-c2cc(-c3cccnc3)on2)c1	–	Not Active	–
O=C(c1cn(Cc2ccccc2)nn1)c1cn(Cc2ccc([N+](=O)[O-])cc2)nn1	–	Not Active	–
